The text below walks through data of paper PMC12524796, “Discovery of Galloyl–Flavonoid Conjugates as SARS-CoV-2 3CL^pro Inhibitors: Understanding Binding Interactions Through Computational Approaches” (International Journal of Molecular Sciences, 2025).

Assay [1] has as its target T1, SARS-CoV-2 3CL^pro (Severe acute respiratory syndrome coronavirus 2, UniProt P0DTD1). Also on record: method as in PMID 38277124.
Assay [2] concerns the target T1, SARS-CoV-2 3CL^pro. Briefly: biochemical. Format: biochemical. Particulars: for inhibition at 100 µM: read-out: SARS-CoV-2 3CL^pro Inhibition 100 µM (%).
In assay [3] the test system is 3CL^pro. Also on record: method as in PMID 32272481. Particulars: read-out: IC50 against 3CL^pro; cited from earlier work.
Where [4] appears, read: 100 µM compound; values marked footnote 3; cited from earlier work.
Setting [5] is: read-out: SARS-CoV-2 3CL^pro Inhibition IC50; values marked footnote 3; cited from earlier work.
The mark [6] stands for this setting: values marked footnote 3; read-out: SARS-CoV-2 3CL^pro Inhibition IC50; cited from earlier work.
Setting [7] is: FRET assay, read-out: SARS-CoV-2 3CL^pro Inhibition IC50.

Where two headings read alike, the source gives them in different places.

For the compound `O=c1cc(-c2ccccc2)oc2cc(O)c(O)c(O)c12` [Compound 1, baicalein, reference compound], the “SARS-CoV-2 3CL^pro Inhibition 100 µM (%)” value in assay [1] (setting [4]) is reported as 62.95 ± 3.10 ^3%.
What is called IC50 is the concentration at which inhibition is half-maximal. Consider `COc1cc(O)c2c(c1)O[C@H](c1ccccc1)CC2=O` [Compound 6, pinostrobin], for which the “SARS-CoV-2 3CL^pro Inhibition 100 µM (%)” value in assay [1] (setting [4]) was 26.44 ± 2.32 ^3%. For the same compound, the IC50 in assay [1] (setting [5]) is over 200 µM.
Take `O=C1C[C@@H](c2ccccc2)Oc2cc(O)cc(O)c21` [Compound 7, pinocembrin]: the “SARS-CoV-2 3CL^pro Inhibition 100 µM (%)” value in assay [1] (setting [4]) is 27.18 ± 2.20 ^3%. Besides, in assay [1] (setting [5]), the IC50 is over 200 µM.
Turning to `COc1cc(O)cc(O)c1C(=O)/C=C/c1ccccc1` [Compound 8, cardamonin], the “SARS-CoV-2 3CL^pro Inhibition 100 µM (%)” value in assay [1] (setting [4]) is given as 85.60 ± 2.44 ^3%. Moreover, the IC50 in assay [1] (setting [5]) is 57.4 µM.
`COc1c(C)c(O)c(C)c(O)c1C(=O)/C=C/c1ccccc1` [Compound 9, dimethylcardamonin]: in assay [1] (setting [4]), the “SARS-CoV-2 3CL^pro Inhibition 100 µM (%)” value is listed as 84.59 ± 0.84 ^3%. Moreover, the IC50 in assay [1] (setting [6]) was 27.5 µM.
For the compound `COc1cc(O)c2c(=O)cc(-c3ccccc3)oc2c1` [Compound 10, tectochrysin], the “SARS-CoV-2 3CL^pro Inhibition 100 µM (%)” value in assay [1] (setting [4]) was 86.39 ± 0.19 ^3%. For the same compound, the IC50 in assay [1] (setting [5]) was 24 µM.
`O=c1cc(-c2ccccc2)oc2cc(O)cc(O)c12` [Compound 11, chrysin]: the “SARS-CoV-2 3CL^pro Inhibition 100 µM (%)” value in assay [1] (setting [4]) is 87.73 ± 0.66 ^3%. Also, the IC50 in assay [1] (setting [6]) is 32.8 µM.
The inhibition is the change of the read-out against control, counted positive when it falls. On to `C=CC(=O)Oc1cc(O)c2c(c1)O[C@H](c1ccccc1)CC2=O` [Compound 13, 7-O-acryloylpinocembrin], for which, in assay [2], the inhibition at 100 µM is 79.2 ± 1.52%.
The same measure, in the same setting: to `C=CC(=O)Oc1cc(OC(=O)C=C)c2c(c1)O[C@H](c1ccccc1)CC2=O` [Compound 14, 5,7-O-diacryloylpinocembrin] belongs 76.2 ± 0.97%; to `C=CC(=O)Oc1cc(O)c(C(=O)/C=C/c2ccccc2)c(OC)c1` [Compound 15, 4′-O-acryloylcardamonin], 66.6 ± 2.05%; to `C=CC(=O)Oc1c(C)c(O)c(C(=O)/C=C/c2ccccc2)c(OC)c1C` [Compound 16, 4′-O-acryloyl-DMC], 52.9 ± 1.17%.
On the same count and under the same terms, under `C=CC(=O)Oc1cc(OC)c(C(=O)/C=C/c2ccccc2)c(OC(=O)C=C)c1` [Compound 17, 2′,4′-O-diacryloylcardamonin] stands 76.8 ± 4.85%; under `C=CC(=O)Oc1c(C)c(OC)c(C(=O)/C=C/c2ccccc2)c(OC(=O)C=C)c1C` [Compound 18, 2′,4′-O-diacryloyl-DMC], 68 ± 3.77%.
With `C=CC(=O)Oc1cc(OC)cc2oc(-c3ccccc3)cc(=O)c12` [Compound 19, 5-O-acryloyltectochrysin], the inhibition at 100 µM in assay [2] (100 µM compound, FRET assay) stood at 37.2 ± 2.09%. Moreover, in assay [2] (setting [7]), the IC50 is over 100 µM.
In the case of `C=CC(=O)Oc1cc(O)c2c(=O)cc(-c3ccccc3)oc2c1` [Compound 20, 7-O-acryloylchrysin], the inhibition at 100 µM in assay [2] turned out to be 84.01 ± 0.82%.
As to `C=CC(=O)Oc1cc(OC(=O)C=C)c2c(=O)cc(-c3ccccc3)oc2c1` [Compound 21, 5,7-O-diacryloylchrysin], the inhibition at 100 µM in assay [2] (100 µM compound, FRET assay) turned out to be 32.3 ± 4.83%. In assay [2] (setting [7]), the IC50 is over 100 µM.
`COc1cc(O)c2c(c1[N+](=O)[O-])O[C@H](c1ccccc1)CC2=O` [Compound 22, 8-nitropinostrobin]: the inhibition at 100 µM in assay [2] came to 55 ± 3.96%.
On the same count and under the same terms, to `COc1cc2c(c(O)c1[N+](=O)[O-])C(=O)C[C@@H](c1ccccc1)O2` [Compound 23, 6-nitropinostrobin] belongs 53.5 ± 4.31%.
Turning to `COc1c([N+](=O)[O-])c(O)c2c(c1[N+](=O)[O-])O[C@H](c1ccccc1)CC2=O` [Compound 24, 6,8-dinitropinostrobin], in assay [2], the IC50 was over 100 µM and the inhibition at 100 µM amounted to 40 ± 3.27%.
As to `COc1cc(O)c2c(c1N)O[C@H](c1ccccc1)CC2=O` [Compound 25, 8-aminopinostrobin], the inhibition at 100 µM in assay [2] (100 µM compound, FRET assay) is 38.2 ± 3.74%. Further, in assay [2] (setting [7]), the IC50 is over 100 µM.
The corresponding values for `COc1cc2c(c(O)c1N)C(=O)C[C@@H](c1ccccc1)O2` [Compound 26, 6-aminopinostrobin] are 14.7 ± 5.85% and over 100 µM.
With `COc1cc(OC(=O)c2ccccc2)c2c(c1)O[C@H](c1ccccc1)CC2=O` [Compound 27, 5-O-benzoylpinostrobin], in assay [2] (100 µM compound, FRET assay), the inhibition at 100 µM stood at 43.4 ± 3.99%. For the same compound, the IC50 in assay [2] (setting [7]) was over 100 µM.
For `COc1cc(OC(=O)c2ccccc2OC(C)=O)c2c(c1)O[C@H](c1ccccc1)CC2=O` [Compound 28, 5-O-(O-acetylsalicyloyl)pinostrobin], the inhibition at 100 µM in assay [2] turned out to be 89.7 ± 5.92%.
Same read-out and setting: to `COc1cc(OC(=O)c2ccc(OC(C)=O)c(OC)c2)c2c(c1)O[C@H](c1ccccc1)CC2=O` [Compound 29, 5-O-(O-acetylvanilloyl)pinostrobin] belongs 84.4 ± 3.91%.
On to `COc1cc(OC(=O)c2cc(OC(C)=O)c(OC(C)=O)c(OC(C)=O)c2)c2c(c1)O[C@H](c1ccccc1)CC2=O` [Compound 30, 5-O-(tri-O-acetylgalloyl)pinostrobin], for which, in assay [2], the “inhibitory activity at 100 µM (in words)” value is reported as “moderate inhibitory activity” and the inhibition at 100 µM was found to be 67.1 ± 2.93%.
For `COc1cc(OC(=O)c2cc(O)c(O)c(O)c2)c2c(c1)O[C@H](c1ccccc1)CC2=O` [Compound 31, 5-O-galloylpinostrobin], the inhibition at 100 µM in assay [2] (100 µM compound, FRET assay) is over 99%. In addition, the IC50 in assay [2] (setting [7]) came to 7.42 µM. Also, the “increase of 3CL^pro inhibitory activity compared with the parent compound” value in assay [2] (versus parent compound) is “over 23 fold”.
Take `O=C(Oc1cc(O)c2c(c1)O[C@H](c1ccccc1)CC2=O)c1ccccc1` [Compound 32, 7-O-benzoylpinocembrin]: in assay [2], the inhibition at 100 µM was found to be 70.8 ± 2.72%.
In the case of `CC(=O)Oc1ccccc1C(=O)Oc1cc(O)c2c(c1)O[C@H](c1ccccc1)CC2=O` [Compound 33, 7-O-(O-acetylsalicyloyl)pinocembrin], the inhibition at 100 µM in assay [2] turned out to be 81.7 ± 0.89%.
The same measure, in the same setting: to `COc1cc(C(=O)Oc2cc(O)c3c(c2)O[C@H](c2ccccc2)CC3=O)ccc1OC(C)=O` [Compound 34, 7-O-(O-acetylvanilloyl)pinocembrin] belongs 83.7 ± 3.37%.
For `CC(=O)Oc1cc(C(=O)Oc2cc(O)c3c(c2)O[C@H](c2ccccc2)CC3=O)cc(OC(C)=O)c1OC(C)=O` [Compound 35, 7-O-(tri-O-acetylgalloyl)pinocembrin], in assay [2], the “inhibitory activity at 100 µM (in words)” value was “moderate inhibitory activity” and the inhibition at 100 µM was found to be 73 ± 1.66%.
`O=C(Oc1cc(O)c2c(c1)O[C@H](c1ccccc1)CC2=O)c1cc(O)c(O)c(O)c1` [Compound 36, 7-O-galloylpinocembrin]: the inhibition at 100 µM in assay [2] (100 µM compound, FRET assay) is over 99%. In assay [2] (setting [7]), the IC50 amounted to 7.53 µM.
For `COc1cc(OC(=O)c2cc(OC(C)=O)c(OC(C)=O)c(OC(C)=O)c2)cc(O)c1C(=O)/C=C/c1ccccc1` [Compound 37, 4′-O-(tri-O-acetylgalloyl)cardamonin], in assay [2], the “inhibitory activity at 100 µM (in words)” value is reported as “moderate inhibitory activity” and the inhibition at 100 µM was 87.2 ± 3.25%.
With `COc1cc(OC(=O)c2cc(O)c(O)c(O)c2)cc(O)c1C(=O)/C=C/c1ccccc1` [Compound 38, 4′-O-galloylcardamonin], the inhibition at 100 µM in assay [2] (100 µM compound, FRET assay) is over 99%. Further, the IC50 in assay [2] (setting [7]) worked out at 13.3 µM.
With `COc1c(C)c(OC(=O)c2cc(OC(C)=O)c(OC(C)=O)c(OC(C)=O)c2)c(C)c(O)c1C(=O)/C=C/c1ccccc1` [Compound 39, 4′-O-(tri-O-acetylgalloyl)-DMC], in assay [2], the “inhibitory activity at 100 µM (in words)” value is “moderate inhibitory activity” and the inhibition at 100 µM came to 72 ± 4.27%.
With `COc1c(C)c(OC(=O)c2cc(O)c(O)c(O)c2)c(C)c(O)c1C(=O)/C=C/c1ccccc1` [Compound 40, 4′-O-galloyl-DMC], the inhibition at 100 µM in assay [2] (100 µM compound, FRET assay) was over 99%. For the same compound, in assay [2] (setting [7]), the IC50 was 6.85 µM.
`COc1cc(OC(=O)c2cc(OC(C)=O)c(OC(C)=O)c(OC(C)=O)c2)c2c(=O)cc(-c3ccccc3)oc2c1` [Compound 41, 5-O-(tri-O-acetylgalloyl)tectochrysin]: in assay [2], the “inhibitory activity at 100 µM (in words)” value is “moderate inhibitory activity” and the inhibition at 100 µM was found to be 72.8 ± 2.43%.
With `COc1cc(OC(=O)c2cc(O)c(O)c(O)c2)c2c(=O)cc(-c3ccccc3)oc2c1` [Compound 42, 5-O-galloyltectochrysin], in assay [2] (100 µM compound, FRET assay), the inhibition at 100 µM is over 99%. The IC50 in assay [2] (setting [7]) stood at 20.6 µM.
Turning to `CC(=O)Oc1cc(C(=O)Oc2cc(O)c3c(=O)cc(-c4ccccc4)oc3c2)cc(OC(C)=O)c1OC(C)=O` [Compound 43, 7-O-(tri-O-acetylgalloyl)chrysin], in assay [2], the “inhibitory activity at 100 µM (in words)” value is “moderate inhibitory activity” and the inhibition at 100 µM was 85.75 ± 0.48%.
Take `O=C(Oc1cc(O)c2c(=O)cc(-c3ccccc3)oc2c1)c1cc(O)c(O)c(O)c1` [Compound 44, 7-O-galloylchrysin]: the inhibition at 100 µM in assay [2] (100 µM compound, FRET assay) is over 99%. Further, the IC50 in assay [2] (setting [7]) worked out at 9.26 µM.
`O=c1c2ccccc2[se]n1-c1ccccc1` [Ebselen]: the IC50 in assay [3] was 0.67 µM.
As for `O=C(O)c1cc(O)c(O)c(O)c1` [gallic acid, reference compound], in assay [2], the IC50 is over 100 µM and the inhibition at 100 µM was 1.72 ± 12.1%.
